Test results reported in patent US20210254272A1, “TEXTILES HAVING ANTIMICROBIAL PROPERTIES” (Livinguard AG, priority 2015, published 2021).

Tested on: E. coli (ATCC 25922)
Test: AATCC Test Method 100-2012 antibacterial activity of the treated textile, after 25 washes and 12 abrasion cycles, contact time 60 minutes
Format: cell-based
Details: for Log reduction of antimicrobial performance: 1% o.w.f; for Log reduction of antimicrobial performance in 100 GSM Polyester fabric / Log reduction of antimicrobial performance in 100 GSM cotton fabric / Log reduction of antimicrobial performance in 300 GSM Polyester fabric / Log reduction of antimicrobial performance in 300 GSM cotton fabric / Performance Test-Log reduction of antimicrobial performance: 2 min; for Performance Test-Log reduction of antimicrobial performance: pad process, single agent 5 gm/lit
Experimental: The antibacterial activity of the textile was tested in accordance with AATCC Test Method 100-2012. Prior to the test, the fabric was cut into coupons of 2×4 inches and washed separately 25 times, and exposed to 12 abrasion cycles, as per US EPA protocol 90072PA4 (described further below). The tests were made against E. coli (ATCC 25922). Contact time was 60 minutes, after inoculating with 10^8 CFU per coupon.

[1] = exhaust 80° C., 60 min, curing 180° C., dosage 0.1% o.w.f
[2] = exhaust 80° C., 60 min, curing 180° C., dosage 0.2% o.w.f
[3] = exhaust 80° C., 60 min, curing 180° C., dosage 0.5% o.w.f
[4] = exhaust 80° C., 60 min, curing 180° C., dosage 0.8% o.w.f
[5] = exhaust 80° C., 60 min, curing 180° C., dosage 1.0% o.w.f

## CCCC1COC(Cn2cncn2)(c2ccc(Cl)cc2Cl)O1 (stereo not shown) [Propiconazole, propiconazole]
Exhaust 60° C., solution dosage 1% o.w.f, process time 60 min
  Log reduction of antimicrobial performance of each active ingredient: 1.7 Log
Exhaust 60° C., solution dosage 1% o.w.f, process time 90 min
  Log reduction of antimicrobial performance of each active ingredient: 1.8 Log
Exhaust 60° C., solution dosage 1% o.w.f, process time 120 min
  Log reduction of antimicrobial performance of each active ingredient: 2.2 Log
Exhaust 60° C., solution dosage 1% o.w.f, process time 180 min
  Log reduction of antimicrobial performance of each active ingredient: 2.3 Log
Exhaust 60° C., solution dosage 1% o.w.f, process time 240 min
  Log reduction of antimicrobial performance of each active ingredient: 2.11 Log
Exhaust 80° C., 60 min, curing 170° C., curing dwell time 0.5 min
  Log reduction of antimicrobial performance: 0.3 Log
Exhaust 80° C., 60 min, curing 170° C., curing dwell time 1.0 min
  Log reduction of antimicrobial performance: 0.6 Log
Exhaust 80° C., 60 min, curing 170° C., curing dwell time 1.5 min
  Log reduction of antimicrobial performance: 0.8 Log
Exhaust 80° C., 60 min, curing 170° C., curing dwell time 2.0 min
  Log reduction of antimicrobial performance: 1.3 Log
Exhaust 80° C., 60 min, curing 170° C., curing dwell time 2.5 min
  Log reduction of antimicrobial performance: 1.1 Log
Exhaust 80° C., 60 min, curing 170° C., curing dwell time 3.0 min
  Log reduction of antimicrobial performance: 0.67 Log
Exhaust 80° C., 60 min, curing 180° C., curing dwell time 0.5 min
  Log reduction of antimicrobial performance: 1.7 Log
Exhaust 80° C., 60 min, curing 180° C., curing dwell time 1.0 min
  Log reduction of antimicrobial performance: 1.8 Log
Exhaust 80° C., 60 min, curing 180° C., curing dwell time 1.5 min
  Log reduction of antimicrobial performance: 2.2 Log
Exhaust 80° C., 60 min, curing 180° C., curing dwell time 2.0 min
  Log reduction of antimicrobial performance: 3.8 Log
Exhaust 80° C., 60 min, curing 180° C., curing dwell time 2.5 min
  Log reduction of antimicrobial performance: 3.5 Log
Exhaust 80° C., 60 min, curing 180° C., curing dwell time 3.0 min
  Log reduction of antimicrobial performance: 3.4 Log
Exhaust 80° C., 60 min, curing 190° C., curing dwell time 0.5 min
  Log reduction of antimicrobial performance: 0.3 Log
Exhaust 80° C., 60 min, curing 190° C., curing dwell time 1.0 min
  Log reduction of antimicrobial performance: 0.8 Log
Exhaust 80° C., 60 min, curing 190° C., curing dwell time 1.5 min
  Log reduction of antimicrobial performance: 2.2 Log
Exhaust 80° C., 60 min, curing 190° C., curing dwell time 2.0 min
  Log reduction of antimicrobial performance: 2.88 Log
Exhaust 80° C., 60 min, curing 190° C., curing dwell time 2.5 min
  Log reduction of antimicrobial performance: 2.34 Log
Exhaust 80° C., 60 min, curing 190° C., curing dwell time 3.0 min
  Log reduction of antimicrobial performance: 1.1 Log
Exhaust 80° C., 60 min, curing temperature 100 ° C.
  Log reduction of antimicrobial performance: 0.21 Log
Exhaust 80° C., 60 min, curing temperature 120 ° C.
  Log reduction of antimicrobial performance: 0.45 Log
Exhaust 80° C., 60 min, curing temperature 140 ° C.
  Log reduction of antimicrobial performance: 0.98 Log
Exhaust 80° C., 60 min, curing temperature 160 ° C.
  Log reduction of antimicrobial performance: 1.23 Log
Exhaust 80° C., 60 min, curing temperature 165 ° C.
  Log reduction of antimicrobial performance: 1.28 Log
Exhaust 80° C., 60 min, curing temperature 170 ° C.
  Log reduction of antimicrobial performance: 1.45 Log
Exhaust 80° C., 60 min, curing temperature 175 ° C.
  Log reduction of antimicrobial performance: 2.32 Log
Exhaust 80° C., 60 min, curing temperature 180 ° C.
  Log reduction of antimicrobial performance: 2.87 Log
Exhaust 80° C., 60 min, curing temperature 185 ° C.
  Log reduction of antimicrobial performance: 2.88 Log
Exhaust 80° C., 60 min, curing temperature 190 ° C.
  Log reduction of antimicrobial performance: 2.91 Log
Exhaust 80° C., 60 min, curing temperature 195 ° C.
  Log reduction of antimicrobial performance: 2.93 Log
[1]
  Log reduction of antimicrobial performance in 100 GSM Polyester fabric: 0.59 Log
  Log reduction of antimicrobial performance in 100 GSM cotton fabric: 0.63 Log
  Log reduction of antimicrobial performance in 300 GSM Polyester fabric: 0.58 Log
  Log reduction of antimicrobial performance in 300 GSM cotton fabric: 0.64 Log
[2]
  Log reduction of antimicrobial performance in 100 GSM Polyester fabric: 1.35 Log
  Log reduction of antimicrobial performance in 100 GSM cotton fabric: 1.45 Log
  Log reduction of antimicrobial performance in 300 GSM Polyester fabric: 1.37 Log
  Log reduction of antimicrobial performance in 300 GSM cotton fabric: 1.45 Log
[3]
  Log reduction of antimicrobial performance in 100 GSM Polyester fabric: 1.71 Log
  Log reduction of antimicrobial performance in 100 GSM cotton fabric: 1.95 Log
  Log reduction of antimicrobial performance in 300 GSM Polyester fabric: 1.73 Log
  Log reduction of antimicrobial performance in 300 GSM cotton fabric: 1.95 Log
[4]
  Log reduction of antimicrobial performance in 100 GSM Polyester fabric: 2.14 Log
  Log reduction of antimicrobial performance in 100 GSM cotton fabric: 2.34 Log
  Log reduction of antimicrobial performance in 300 GSM Polyester fabric: 2.50 Log
  Log reduction of antimicrobial performance in 300 GSM cotton fabric: 2.34 Log
[5]
  Log reduction of antimicrobial performance in 100 GSM Polyester fabric: 2.75 Log
  Log reduction of antimicrobial performance in 100 GSM cotton fabric: 2.85 Log
  Log reduction of antimicrobial performance in 300 GSM Polyester fabric: 2.74 Log
  Log reduction of antimicrobial performance in 300 GSM cotton fabric: 2.88 Log
Exhaust 80° C., 60 min, dosage 1% o.w.f (test up to 5% o.w.f)
  Log reduction of antimicrobial performance of each active ingredient: 2.56 Log
Exhaust 80° C., 60 min, dosage 2% o.w.f
  Log reduction of antimicrobial performance of each active ingredient: 2.57 Log
Exhaust 80° C., 60 min, dosage 3% o.w.f
  Log reduction of antimicrobial performance of each active ingredient: 2.58 Log
Exhaust 80° C., 60 min, dosage 4% o.w.f
  Log reduction of antimicrobial performance of each active ingredient: 2.61 Log
Exhaust 80° C., 60 min, dosage 5% o.w.f
  Log reduction of antimicrobial performance of each active ingredient: 2.63 Log
Exhaust 80 ° C., solution dosage 1% o.w.f, process time 10 min
  Log reduction of antimicrobial performance of each active ingredient: 0.83 Log
Exhaust 80 ° C., solution dosage 1% o.w.f, process time 20 min
  Log reduction of antimicrobial performance of each active ingredient: 0.99 Log
Exhaust 80 ° C., solution dosage 1% o.w.f, process time 30 min
  Log reduction of antimicrobial performance of each active ingredient: 1.23 Log
Exhaust 80 ° C., solution dosage 1% o.w.f, process time 40 min
  Log reduction of antimicrobial performance of each active ingredient: 1.67 Log
Exhaust 80 ° C., solution dosage 1% o.w.f, process time 50 min
  Log reduction of antimicrobial performance of each active ingredient: 2.56 Log
Exhaust 80 ° C., solution dosage 1% o.w.f, process time 60 min
  Log reduction of antimicrobial performance of each active ingredient: 2.87 Log
Exhaust 80 ° C., solution dosage 1% o.w.f, process time 70 min
  Log reduction of antimicrobial performance of each active ingredient: 2.89 Log
Exhaust 80 ° C., solution dosage 1% o.w.f, process time 80 min
  Log reduction of antimicrobial performance of each active ingredient: 2.93 Log
Exhaust 80 ° C., solution dosage 1% o.w.f, process time 90 min
  Log reduction of antimicrobial performance of each active ingredient: 2.94 Log
Curing 120° C.
  Performance Test-Log reduction of antimicrobial performance: 0.04 Log
Curing 140° C.
  Performance Test-Log reduction of antimicrobial performance: 0.14 Log
Curing 150° C.
  Performance Test-Log reduction of antimicrobial performance: 0.22 Log
Curing 160° C.
  Performance Test-Log reduction of antimicrobial performance: 0.49 Log
Curing 180° C.
  Performance Test-Log reduction of antimicrobial performance: 0.98 Log
